Test results published in PMC4788259 (PLoS Neglected Tropical Diseases, 2016).

Test system: E. multilocularis metacestodes
Assay: PGI assay: phosphoglucose isomerase release from damaged metacestodes
Type: cell-based, Echinococcus multilocularis
Conditions: 10 μM, 5 days, single wells, relative to DB1127 (10 μM)
Protocol: The preparation of E. multilocularis metacestode material (strain H95) from intraperitoneally (i.p.) infected BALB/c mice was performed as described earlier. Metacestode vesicles were used for in vitro drug screening when they reached 2 to 4 mm in diameter.
For screening of the Malaria Box against E. multilocularis metacestodes, the PGI screening assay was applied that measures the release of the enzyme phosphoglucose isomerase (PGI) upon physical impairment of metacestodes. The screening setup was done in 24 well plates as described by Stadelmann et al. For initial screening, each drug was applied at 10 μM to metacestodes in single wells. As a positive control-drug, the dicationic diguanidino compound DB1127 (10 μM) was used and 0.1% DMSO was added as negative control. Metacestodes were cultured in the presence of the compounds for 5 days, after which PGI release was quantified exactly as stated in Stadelmann et al. […] Averages, standard deviations and EC50 values were calculated in Microsoft Excel 2010.

In the case of N=c1c2ccccc2nnn1-c1cccc(C(F)(F)F)c1 [MMV665923], the “PGI (% of DB1127 at 10 uM)” value is reported as 18.29%.

With CCCCc1c(C)nc2c(OC)cccc2c1O [MMV006820] the “PGI (% of DB1127 at 10 uM)” value was 1.39%.

For CCOc1ccc(CN2CCN(CC(O)COc3ccc(OCC(O)CN4CCN(Cc5ccc(OCC)cc5)CC4)cc3)CC2)cc1 (stereo not drawn) [MMV007092], the “PGI (% of DB1127 at 10 uM)” value was -3.58%.

With COc1ccc(Nc2cc(C)nc(NCc3ccccc3)n2)cc1 [MMV006825] the “PGI (% of DB1127 at 10 uM)” value was 17.48%.

For CCOc1ccc(C2N(C)c3ccccc3N2C)cc1 [MMV075490], the “PGI (% of DB1127 at 10 uM)” value was 26.52%.

With O=C(O)C(=O)O.Oc1ccccc1CN1CCN(C(c2ccccc2)c2ccccc2)CC1 [MMV011795] the “PGI (% of DB1127 at 10 uM)” value was -19.79%.

With Cc1cc(NC(=O)c2cccc(C(F)(F)F)c2)n(-c2nc(-c3ccc4c(c3)OCO4)cs2)n1 [MMV396681] the “PGI (% of DB1127 at 10 uM)” value was -33.55%.

In the case of COc1ccc(CCN2C(=O)c3[nH]nc(-c4cc(Cl)c(C)cc4O)c3C2c2ccccc2F)cc1 (stereo not drawn) [MMV396717], the “PGI (% of DB1127 at 10 uM)” value is reported as -12.02%.

With Oc1c(CN2CCN(c3ccccc3F)CC2)cc(Br)c2cccnc12 [MMV000760] the “PGI (% of DB1127 at 10 uM)” value was -8.56%.

For Cc1ccc(C)c(Cn2c(N3CCC(C(=O)NCc4cccs4)CC3)nc3ccccc32)c1 [MMV019741], the “PGI (% of DB1127 at 10 uM)” value was -17.48%.

With O=C(NCc1ccco1)C1CCN(S(=O)(=O)c2ccc(Br)cc2)CC1 [MMV007430] the “PGI (% of DB1127 at 10 uM)” value was -0.53%.

CCOc1cc2c(cc1OCC)C(c1cc(OC)c(O)cc1Cl)NCC2 (stereo not drawn) [MMV008956] was tested, and the “PGI (% of DB1127 at 10 uM)” value was -28.84%.

In the case of Cc1cc(NCCN2CCCCC2)c2ccc3ccccc3c2n1 [MMV006203], the “PGI (% of DB1127 at 10 uM)” value is reported as -66.37%.

For Br.Cc1ccc(C)c(-c2csc(Nc3ccc(C)c(C)c3)n2)c1 [MMV007654], the “PGI (% of DB1127 at 10 uM)” value was 3.26%.

In the case of O=C(NCCCN1CCC(N2CCCCC2)CC1)C1=Cc2cc(Br)ccc2OC1 [MMV019995], the “PGI (% of DB1127 at 10 uM)” value is reported as 11.48%.

Cc1cc(Nc2ccc3ccccc3c2)n2ncnc2n1 [MMV011099] was tested, and the “PGI (% of DB1127 at 10 uM)” value was -50.58%.

For Cc1[nH]c(-c2ccc(F)cc2)cc1C(=O)NC1CCN(Cc2ccccc2)CC1 [MMV019738], the “PGI (% of DB1127 at 10 uM)” value was 12.98%.

With COc1ccc(C(=O)Nc2ccc(Cl)cc2C(=O)Nc2ccncc2)cc1 [MMV665799] the “PGI (% of DB1127 at 10 uM)” value was 5.52%.

With CCOc1ccc2nc(C)cc(Nc3ccc(N(C)C)cc3)c2c1.Cl [MMV007020] the “PGI (% of DB1127 at 10 uM)” value was -3.98%.

With COc1ccc(NC(=O)C2c3ccccc3C(=O)N(CC(C)C)C2c2cccs2)cc1Cl (stereo not drawn) [MMV000642] the “PGI (% of DB1127 at 10 uM)” value was -45.07%.

CCN1CCN(c2c(C(=O)c3ccccc3)cnc3cc(OC)c(OC)cc23)CC1 [MMV008474] was tested, and the “PGI (% of DB1127 at 10 uM)” value was -15.22%.

With COc1cccc(O)c1CN1CCC2(CCCN(Cc3ccc(F)cc3)C2)C1 (stereo not drawn) [MMV666061] the “PGI (% of DB1127 at 10 uM)” value was -20.69%.

In the case of c1ccc(-c2ccc(-c3nc4ccccc4[nH]3)cc2)cc1 [MMV665891], the “PGI (% of DB1127 at 10 uM)” value is reported as -89.45%.

CCc1ccc(Nc2cc(C)nc3nc(C)nn23)cc1 [MMV007374] was tested, and the “PGI (% of DB1127 at 10 uM)” value was 12.73%.

In the case of COc1ccc(C2C(C(=O)Nc3cccc(OC)c3)c3ccccc3C(=O)N2C2CCCCC2)cc1 (stereo not drawn) [MMV008455], the “PGI (% of DB1127 at 10 uM)” value is reported as -12.94%.

In the case of Cc1ccc(Nc2nc(N)c3ccccc3n2)cc1Cl [MMV011522], the “PGI (% of DB1127 at 10 uM)” value is reported as 12.79%.

With CC1CCN(Cc2c(O)ccc3cc(-c4nc5ccccc5s4)c(=O)oc23)CC1 [MMV009127] the “PGI (% of DB1127 at 10 uM)” value was 0.35%.

In the case of COc1ccc(-c2nonc2NC(=O)c2cccc(C)c2)cc1OC [MMV665890], the “PGI (% of DB1127 at 10 uM)” value is reported as -8.07%.

OC(CNCC1CCCO1)Cn1c2ccc(Cl)cc2c2cc(Cl)ccc21 (stereo not drawn) [MMV396736] was tested, and the “PGI (% of DB1127 at 10 uM)” value was 50.77%.

With CCCN(CCC)CCCNC(=O)c1cc2c(-c3ccc(OC)c(OC)c3)nn(C)c2s1 [MMV000561] the “PGI (% of DB1127 at 10 uM)” value was -1.54%.

For Cc1ccc(S(=O)(=O)c2c(COC(=O)c3cccc(C)c3)c(-c3ccccc3)nn2C)cc1 [MMV665936], the “PGI (% of DB1127 at 10 uM)” value was -18.54%.

With OCCNc1nc(Nc2ccc(Cl)c(Cl)c2)nc2ccccc12 [MMV001041] the “PGI (% of DB1127 at 10 uM)” value was 6.70%.

For COc1ccc(Nc2nc(NCc3ccccc3)c3ccccc3n2)cc1 [MMV000963], the “PGI (% of DB1127 at 10 uM)” value was 109.36%.
